Measured values from US20030220309A1, “17-methylenandrostan-3alpha-ol analogs as CRH inhibitors” (Pherin Pharmaceuticals, Inc., priority 2001, published 2003).

Legend:
[1] = system: normal adult male and female human volunteers; assay: Power spectral analysis of electroencephalograms after vomeronasal administration; type: in vivo; details: 400 pg to the vomeronasal organ
Procedure: (§1) 17-Methylenandrost-4-en-3α-ol, 400 pg, or placebo were administered to the vomeronasal organs of normal adult male and female human volunteers using a delivery device which delivered the compound to the opening of the vomeronasal organ in measured quantity (two 2 second “puffs” of a 10^−8 M solution of the active ingredient in propylene glycol, or propylene glycol alone). The study evaluations included objective and subjective evaluations of sleep, a power spectral analysis of the subjects' electroencephalograms, and a pencil-and-paper self-report inventory (ABS-70) of the subjects' effective state.
Based on this study, 17-methylenandrost-4-en-3α-ol shares antidepressant and stimulant properties with paroxetine and other selective serotonin reuptake inhibitor antidepressants.

[2] = system: norepinephrine and serotonin; assay: Neurotransmitter concentrations in blood and metabolites in urine; type: in vivo; details: relative to placebo, human volunteers
Procedure: as §1
(§2) 17-Methylenandrost-4-en-3α-ol also reduces plasma concentrations of ACTH and cortisol, and also reduces cortisol concentration in urine. It also increases, relative to placebo, concentrations of the neurotransmitters norepinephrine and serotonin in blood and their metabolites in urine.

[3] = system: normal adult male and female human volunteers; assay: Overall outcome of the vomeronasal study (sleep, EEG, self-report); type: in vivo; details: administration to the vomeronasal organ
Procedure: as §1

[4] = system: normal adult male and female human volunteers; assay: Sleep evaluation after administration to the vomeronasal organ of normal human volunteers; type: in vivo; set-up: key: increase (↑); decrease (↓); no change (=); details: 400 pg administered to the VNO before bedtime, normal subjects, males and females combined, change with respect to placebo
Procedure: as §1
The table below provides a comparison of the results from the study with 17-methylenandrost-4-en-3α-ol with literature reports on the effects of the effects of the marketed antidepressant paroxetine (Paxil®); where changes in sleep variables are indicated as an increase (↑), decrease (↓), or no change (=) with respect to placebo.
Comparative effects of 17-methylenandrost-4-en-3α-ol, 400 pg administered to the VNO, and paroxetine, 30 mg orally, given before bedtime in normal subjects: […]

CRH = assay: ACTH and cortisol concentrations in plasma and urine (indirect measure of CRH inhibition); type: in vivo; details: 400 pg to the vomeronasal organ, human volunteers
Procedure: The compounds of this invention are, when administered to the VNO, CRH inhibitors. Their activity as CRH inhibitors in vivo can be measured directly by measurement of the inhibition of CRH or indirectly by the measurement of other hormones, such as ACTH, and steroids, such as cortisol, associated with CRH, as discussed in the Examples.
as §1, §2

normal subjects = system: normal subjects; set-up: key: increase (↑); decrease (↓); no change (=); details: 30 mg orally before bedtime, change with respect to placebo, from Saletu et al. 1991; cited from earlier work

C=C1CC[C@H]2[C@@H]3CCC4=C[C@H](O)CC[C@]4(C)[C@H]3CC[C@]12C [17-Methylenandrost-4-en-3α-ol]
EEG β-wave activity [1]: increased
EEG θ-wave activity [1]: increased
δ-frequency activity in stages S3 and S4 non-REM sleep [1]: increase
concentration of norepinephrine in blood ([2]; blood): increases
concentration of serotonin in blood ([2]; blood): increases
concentrations of norepinephrine and serotonin metabolites in urine ([2]; urine): increases
overall study result (sleep, EEG, hormones, neurotransmitters) [3]: antidepressant properties
REM sleep latency [4]: ↑
Sleep efficiency [4]: ↓
Sleep latency [4]: ↑
Stage 1 sleep time [4]: ↑
Stage 2 sleep time [4]: ↑
Stages 3 + 4 sleep time [4]: =
Total REM sleep time [4]: ↓
Total sleep time [4]: ↓
plasma concentration of ACTH (CRH; plasma): reduces
plasma concentration of cortisol (CRH; plasma): reduces
cortisol concentration in urine (CRH; urine): reduces

Fc1ccc([C@@H]2CCNC[C@H]2COc2ccc3c(c2)OCO3)cc1 [Paroxetine, paroxetine]
REM sleep latency (normal subjects): ↑
Sleep efficiency (normal subjects): ↓
Sleep latency (normal subjects): ↑
Stage 1 sleep time (normal subjects): ↑
Stage 2 sleep time (normal subjects): =
Stages 3 + 4 sleep time (normal subjects): =
Total REM sleep time (normal subjects): ↓
Total sleep time (normal subjects): ↓
